Measured values from US6699901B1, “Dicarboxylato diammine platinum derivatives and compositions comprising them as anti-tumor agents” (priority 2000, dated 2004).
“Also recorded” adds a separate entry of the source. Where two headings read alike, the source gives them in different places.

Assays:
[1] = Toxic reactions in clinical trial (five-degree classification by WHO); assay type: in vivo, human
[2] = system: gastric cancer BGC-823 cells; assay: Determination of IC50, MTT, BGC-823 cells; assay type: cell-based
Experimental: a). Cultured gastric cancer BGC-823 cells in RPMJ-1640 nutritional fluid containing 15% fetal calf serum; then inoculated them onto 96-well culture plate, 1×10^4 cells per well; Put it in an incubator with temperature of 37° C. and 5% of CO2. […] After 72 hours of culture, added MTT fluid. An hour later, DMSO was added for coloration. OD value was assayed with enzyme labeling instrument. Finally, calculated the response rate of the drug in each concentration and determined IC50 based on the coordinate process.

[3] = Effectiveness on oral administration; assay type: in vivo
carnuncle S180 = assay: Carcinostatic rates against carnuncle S180 in mice; assay type: in vivo, Kunming mice; settings: for Mice After Injection: 10 mice before injection
[4] = system: human breast cancer, lung cancer, hepatic cancer, colorectal cancer and ovary cancer; assay: Nude mice inoculation carcinostatic rate experiments, human cancers; assay type: in vivo; settings: for response carcinostatic rate: injected abdominally
Experimental: (§1) The mice were divided into three groups, which were given large dose (LD50×⅕), middle dose (LD50× 1/10) and small dose (LD50× 1/20) respectively. […] Beijing's institute for drug control carried out human hepatic cancer H22 nude mice inoculation carcinostatic rate experiments. […] Every group was given 0.2 ml every time per day for seven consecutive days. The mice were put to death thirty days after inoculation.

[5] = system: cells of adenocarcinoma of breast; assay: IC50 on human breast cancer cells; assay type: cell-based
[6] = system: human hepatic cancer BEL-7402 cells; assay: Ultra-microstructure of BEL-7402 cells by transmission electronic microscope; assay type: cell-based; settings: different doses
Excerpt: 3. […] Then the changes of the ultra-microstructure were observed via transmission electronic microscope. […] The vacuoles and the lipid drop in the plasma increased drastically until necrotic changes, karyopyknosis, karyorrhexis, karyolysis and complete disintegration occurred (FIG. 6-FIG. 11).
e). […] The cells untreated appeared in the shape of irregular polygon, with abundant microvilli on the cell surface, plentiful organelles and different amount of glycogen granules in the plasma. […] The vacuoles and the lipid drop in the plasma increased drastically until necrotic changes, karyopyknosis, karyorrhexis, karyolysis and complete disintegration occurred.

[7] = system: human oral cancer KB cells; assay: Determination of IC50, MTT, KB cells; assay type: cell-based; settings: for Response rate: KB
hepatic cancer H22 cells = assay: Carcinostatic rates on hepatic cancer H22 in Kunming mice; assay type: in vivo; settings: for Tumor Weight: daily for seven days; for Mice After Injection: 10 mice before injection
Experimental: a). Divided 40 Kunming mice with weight ranging from 21 to 22 g, half male and half female randomly into 4 groups. Every group had 10 mice. Inoculated every mouse with 0.2 ml hepatic cancer H22 cells subcutaneously in right abdomen. […] The control group was given normal saline IP. The mice were put to death the day after withdrawal. Weighed the bodies and the tumor, calculated the carcinostatic rates.

[8] = Antitumor effects (test not specified)
lung cancer cells = assay: Selective killing experiment, lung cancer cells; assay type: cell-based, human; settings: within a certain range of doses
[9] = system: human hepatic cancer BEL-7402 cells; assay: Dynamic growth of BEL-7402 cells cultured in vitro; assay type: cell-based; settings: 10 μg/ml and 20 μg/ml, observed for eight days
Experimental: 1. […] From the third day on, the survival cells in the treated group were less than that in the control group, in which the cells grew logarithmically while those in the treated group decreased gradually. The difference among the groups became wider as time went by; moreover, the survival cells of 20 μg/ml group were less than those of 10 μg/ml group.
c). […] Then observed the dynamic growth of the cells for eight days. […] From the third day on, the cells in the control group grew logarithmically while those in the treated group decreased gradually. The difference among the groups became wider as time went by.

[10] = system: human hepatic cancer cells BEL-7402; assay: IC50 on human hepatic cancer cells BEL-7402; assay type: cell-based
melanoma cells = assay: Selective killing experiment, melanoma cells; assay type: cell-based, human; settings: within a certain range of doses
rats = assay: Long-term toxicity experiments in rats
Excerpt: Thus we can not only know the target organs of toxic reactions and the reversibility of the damages through observing the main body reactions and degrees of injuries after three months of administration, but also determine nontoxic dose to provide reference for therapeutic safe dose.
c). […] Weighed the rats once a week and adjusted doses according to weight changes. Stopped administration after 12 weeks and continued observing for 2 weeks.

Kunming mice = assay: Acute toxicity, IP once a day for ten days, LD50 by Bliss method; assay type: in vivo
Excerpt: a). Divided 50 Kunming mice randomly into 5 groups, each having 10 mice, weighing from 18 g to 22 g and being half male and half female.

human hepatic cancer H22 = settings: for response carcinostatic rate: intravenous, daily for seven days
Experimental: as §1

cancer = assay: Typical cases treated by oral capsules and injections; assay type: in vivo, human
Excerpt: 1. The oral capsules were composed of bicycloplatin and adjuvant.
2. […] A course of treatment took 6 times (12 ampoules). The second course of treatment began after an interval of two weeks. After three consecutive courses of treatment, general examination was taken.

nude mice = assay: Acute toxicity dose limiting experiments (LD50)
Experimental: The LD50 of the pharmaceutical composition of the invention is tested as follows, for example: […]

Solubility in water = assay type: physicochemical
Stability in water = assay type: physicochemical; settings: after dissolved in water
[11] = 12th week of administration and 2 weeks after withdrawal
[12] = rats, oral LD50/10 once a day for 90 days
[13] = after two times of administration of the smallest dose based on LD50

## double 1,1-cyclobutane dicarboxylic acid diaminoplatin complex [bicycloplatin]
[1]
  adverse reactions: no adverse reactions occur
[2]; BGC-823, 0.78 μg/ml
  Response rate: 6.0%
[2]; BGC-823, 1.56 μg/ml
  Response rate: 19.0%
[2]; BGC-823, 3.13 μg/ml
  Response rate: 21.0%
[2]; BGC-823, 6.25 μg/ml
  Response rate: 33.0%
[2]; BGC-823, 12.5 μg/ml
  Response rate: 51.0%
[2]; BGC-823, 25 μg/ml
  Response rate: 60.0%
[2]; BGC-823, 50 μg/ml
  Response rate: 74.6%
[2]; BGC-823, 100 μg/ml
  Response rate: 80.3%
[2]; BGC-823, 200 μg/ml
  Response rate: 83.3%
[2]; BGC-823, 72 hours
  IC50: IC50 = 14.80 ± 1.34 μg/ml
[3]
  effectiveness on oral administration: significant therapeutic effects
Carnuncle S180; 10-30 mg/kg
  antitumor effects on S180: potent antitumor effects on S180 dependent on doses
Carnuncle S180; S180, 10 mg/kg
  Body Weight After Injection: 25.8 g
  Response rate: 39.7%
  Tumor Weight: 1.03 ± 0.30 g
  Mice After Injection: 10
Carnuncle S180; S180, 20 mg/kg
  Body Weight After Injection: 18.1 g
  Response rate: 68.0%
  Tumor Weight: 0.54 ± 0.16 g
  Mice After Injection: 10
Carnuncle S180; S180, 30 mg/kg
  Body Weight After Injection: 21.5 g
  Response rate: 71.0%
  Tumor Weight: 0.49 ± 0.16 g
  Mice After Injection: 10
[4]; large dose (LD50×⅕)
  response carcinostatic rate: 90%
[4]; middle dose (LD50×1/10)
  response carcinostatic rate: 95%
[4]; small dose (LD50×1/20)
  response carcinostatic rate: 70%
[4]; same doses given by stomach lavage, compared with abdominal injection
  carcinostatic rates: a little lower carcinostatic rates
[5]
  IC50: 2.8 µg/mL
[6]
  cell death: Five days later cell death occurred
  changes of the ultra-microstructure: degenerative changes of different degrees with the increase of the concentration of drug; also recorded: degenerative changes of different degrees with the increase of the concentration of bicycloplatin
[7]; KB cells, 72 hours
  IC50: IC50 = 13.24 ± 1.33 μg/ml
[7]; 0.78 μg/ml
  Response rate: 5.9%
[7]; 1.56 μg/ml
  Response rate: 14.8%
[7]; 3.13 μg/ml
  Response rate: 28.2%
[7]; 6.25 μg/ml
  Response rate: 26.2%
[7]; 12.5 μg/ml
  Response rate: 36.7%
[7]; 25 μg/ml
  Response rate: 66.6%
[7]; 50 μg/ml
  Response rate: 77.1%
[7]; 100 μg/ml
  Response rate: 93.0%
[7]; 200 μg/ml
  Response rate: 93.3%
Hepatic cancer H22 cells; H22, 10 mg/kg
  Body Weight After Injection: 27.9 g
  Response rate: 40.4%
  Mice After Injection: 10
Hepatic cancer H22 cells; H22, 10 mg/kg abdominally
  Tumor Weight: 0.95 ± 0.29 g
Hepatic cancer H22 cells; H22, 20 mg/kg
  Body Weight After Injection: 24.4 g
  Response rate: 67.0%
  Mice After Injection: 10
Hepatic cancer H22 cells; H22, 20 mg/kg abdominally
  Tumor Weight: 0.53 ± 0.26 g
Hepatic cancer H22 cells; H22, 30 mg/kg
  Body Weight After Injection: 22.4 g
  Response rate: 78.6%
  Mice After Injection: 10
Hepatic cancer H22 cells; H22, 30 mg/kg abdominally
  Tumor Weight: 0.34 ± 0.09 g
Hepatic cancer H22 cells; H22, 10-30 mg/kg
  mortality: no mortality occurs
Hepatic cancer H22 cells; H22, 10-30 mg/kg, versus control group
  weight gain of the treated groups: less than that of the control group
[8]
  antitumor spectrum: Broad Antitumor Spectrum
Lung cancer cells
  lung cancer cells killed: 50%
[9]
  inhibition of growth of BEL-7402 cells: could inhibit the growth of human hepatic cancer BEL-7402 cells cultured in vitro dependent on time and dose; also recorded: potent antitumor effects on human hepatic cancer BEL-7402 cells dependent on doses
[10]
  IC50: 1.3 µg/mL
Melanoma cells
  melanoma cells (melanophore) killed: 80%
rats; [11]
  BUN, GPT, GOT versus control group: no significant difference
  WBC, RBC, hemoglobin, platelet: all within normal ranges
rats; after observation
  histological examination, livers and spleens: different degrees of hyperemia and edema
  histological examination, other visceras: No organic changes caused by the drug are found
  other visceral coefficients: all normal
rats; after observation, versus control group
  weights of the livers: slightly heavier than that of the control group
rats; [12]
  diet, activity and state of the rats: no obvious abnormality
  mortality: No mortally occurred
rats; rats, three months of administration
  injuries of the drug to viscera: dose-dependent
rats; small dose
  damage and recovery: does a little damage to the group and the group can recover fully
rats; therapeutic dose
  reversibility of injuries: alleviated after one month of withdrawal
Kunming mice; IP 96-400 mg/kg
  abnormal manifestations: did not occur except local irritation of the high concentration
  time of death: on the 3rd to 7th day
Kunming mice; Kunming mice, IP once a day for ten consecutive days, Bliss method
  LD50±SE: 210.5 ± 1.14 mg/kg
Kunming mice; determined under the same condition
  LD50 compared with cisplatin and carboplatin: significantly higher than the LD50 of cisplatin and carboplatin
Human hepatic cancer H22; every group containing ten mice
  death of nude mice: No death of nude mice was observed
Human hepatic cancer H22; large dose (LD50×⅕)
  response carcinostatic rate: 50.85%
Human hepatic cancer H22; middle dose (LD50×1/10)
  response carcinostatic rate: 57.40%
Human hepatic cancer H22; small dose (LD50×1/20)
  response carcinostatic rate: 35.20%
cancer; Patient Li, end of the 2nd course of treatment
  tumor: basically disappeared
cancer; Patient Ma, hepatic cancer, capsules and injections, after two months
  lung metastatic carcinoma: disappeared
cancer; Patient Meng, adenocarcinoma of lung at late stage, injections and oral capsules
  outcome: cured in general
cancer; Patient Wang, late hepatic cancer
  final outcome: the tumor disappeared
cancer; Patient Yang, melanoma, metastasis to liver and lung, 36 ampoules
  outcome: The metastatic tumors had been cured and the melanoma had necrosed
cancer; Patient Zhu, cystic cancer, oral capsules
  three masses with size of 2×2 cm^2: disappeared completely
cancer; foreign patient, intestinal cancer, 36 ampoules and 36 oral capsules
  metastasis to liver: disappeared

## O=P1(N(CCCl)CCCl)NCCCO1 (stereo not shown) [cyclophosphamide, reference compound]
Human hepatic cancer H22; [13]
  inhibition rate: 73.15%
  state of the mice: most of the mice were near death

## Double 1,1-Cyclopropane Dicarboxylic Acid Diaminoplatin Complex
[8]
  antitumor effects compared with bicycloplatin: superior
Nude mice; injected
  LD50: 180 mg/kg
Solubility in water
  solubility in water compared with bicycloplatin: less soluble in water

## N.N.O=C([O-])C1(C(=O)[O-])CCC1.[Pt+2] [Carboplatin, carboplatin, reference compound]
[3]
  effectiveness on oral administration: ineffective
[5]
  IC50: 9.3 µg/mL
Nude mice; administered abdominally
  LD50 abdominal administration: 130 mg/kg
[10]
  IC50: 8.45 µg/mL
Solubility in water
  Solubility in water: 1.5 g/100 ml
Stability in water
  stability in water: lose effectiveness in one day

## N.N.[Cl][Pt][Cl] [Cisplatin, cis-dichlorodiaminoplatin]
[3]
  effectiveness on oral administration: ineffective
Stability in water
  stability in water: lose effectiveness in one day
